Laboratory results reported in paper PMC7673237 (ACS infectious diseases, 2020).
In brackets after ≈: the same amount, converted by molar mass. Where two headings read alike, the source gives them in different places.

Experiments:
E. coli MG1655OXA-48 = experiment: Bacterial susceptibility; format: cell-based; conditions: for MIC: Escherichia coli
OXA-10 = OXA-10 (Pseudomonas aeruginosa, UniProt P14489); experiment: Inhibition assay with nitrocefin as reporter, OXA-10; format: biochemical
OXA-163 = OXA-163 (Klebsiella pneumoniae, UniProt Q6XEC0, DEL214-217/S212D); experiment: Inhibition assay with nitrocefin as reporter, OXA-163; format: biochemical; conditions: read-out: CDD-97 Ki; OXA-163, nitrocefin substrate
OXA-48 = OXA-48 (Klebsiella pneumoniae, UniProt Q6XEC0); experiment: Inhibition of OXA-48 mediated nitrocefin hydrolysis; format: biochemical; conditions: purified OXA-48, nitrocefin substrate, Morrison equation
OXA-58 = OXA-58 (Acinetobacter baumannii, UniProt Q2TR58); experiment: Inhibition assay with nitrocefin as reporter, OXA-58; format: biochemical
OXA-24 = OXA-24 (Acinetobacter baumannii, UniProt Q8RLA6); experiment: Inhibition assay with nitrocefin as reporter, OXA-24; format: biochemical
E. coli MG1655 = experiment: Accumulation assay in E. coli; format: cell-based; conditions: wild-type E. coli MG1655, 10 minutes at 37°C, LC-MS/MS

## CC1(C)S[C@@H]2[C@H](NC(=O)[C@H](N)c3ccccc3)C(=O)N2[C@H]1C(=O)O [AMP, ampicillin]
E. coli MG1655OXA-48; MG1655OXA48, read-out: AMP MIC, no inhibitor (0 μg/mL)
  MIC: 512 µg/mL (≈ 1470 µM)

## NC(=O)[C@@H]1CC[C@@H]2CN1C(=O)N2OS(=O)(=O)O [Avibactam, avibactam]
E. coli MG1655OXA-48; MG1655OXA48, read-out: AMP MIC, with avibactam 0.125 μg/mL
  MIC: 256 µg/mL
E. coli MG1655OXA-48; MG1655OXA48, read-out: AMP MIC, with avibactam 0.25 μg/mL
  MIC: 128 µg/mL
E. coli MG1655OXA-48; MG1655OXA48, read-out: AMP MIC, with avibactam 0.5 μg/mL
  MIC: 64 µg/mL
E. coli MG1655OXA-48; MG1655OXA48, read-out: AMP MIC, with avibactam 1 μg/mL
  MIC: 32 µg/mL
E. coli MG1655OXA-48; MG1655OXA48, read-out: AMP MIC, with avibactam 2 μg/mL
  MIC: 16 µg/mL
E. coli MG1655OXA-48; MG1655OXA48, read-out: AMP MIC, with avibactam 4 μg/mL
  MIC: 4 µg/mL
E. coli MG1655OXA-48; MG1655OXA48, read-out: IMP MIC, with avibactam 0.125 μg/mL
  MIC: 0.312 µg/mL
E. coli MG1655OXA-48; MG1655OXA48, read-out: IMP MIC, with avibactam 0.25 μg/mL
  MIC: 0.312 µg/mL
E. coli MG1655OXA-48; MG1655OXA48, read-out: IMP MIC, with avibactam 0.5 μg/mL
  MIC: 0.156 µg/mL
E. coli MG1655OXA-48; MG1655OXA48, read-out: IMP MIC, with avibactam 1 μg/mL
  MIC: 0.156 µg/mL
E. coli MG1655OXA-48; MG1655OXA48, read-out: IMP MIC, with avibactam 2 μg/mL
  MIC: 0.156 µg/mL
E. coli MG1655OXA-48; MG1655OXA48, read-out: IMP MIC, with avibactam 4 μg/mL
  MIC: 0.0781 µg/mL
E. coli MG1655OXA-48; inhibitor up to 4 μg/ml
  change of both the AMP and IMP MICs with increasing inhibitor concentration: dose-dependent decrease

## CCOc1ccccc1N1CCN(c2ncnc(N3CCC(C(=O)O)CC3)n2)CC1 [CDD-97]
OXA-10; OXA-10 vs OXA-48
  Ki less potent than observed for OXA-48: about 100 fold
OXA-10; read-out: CDD-97 Ki, OXA-10, nitrocefin substrate
  Ki: 61 ± 27 µM
OXA-163
  Ki: 0.44 ± 0.02 µM
OXA-48
  Ki: 0.53 ± 0.08 µM
OXA-58; OXA-58 vs OXA-48
  Ki less potent than observed for OXA-48: about 100 fold
OXA-58; read-out: CDD-97 Ki, OXA-58, nitrocefin substrate
  Ki: 45 ± 0.8 µM
OXA-24; OXA-24 vs OXA-48
  decrease in potency compared to OXA-48: 26 fold
OXA-24; read-out: CDD-97 Ki, OXA-24, nitrocefin substrate
  Ki: 14 ± 1 µM
E. coli MG1655
  level in cells lower than the positive control tetracycline: 20 fold
E. coli MG1655OXA-48; with CDD-97 4 μg/mL
  AMP MIC: 1024 µg/mL
  IMP MIC: 0.625 µg/mL
E. coli MG1655OXA-48; with CDD-97 8 μg/mL
  AMP MIC: 512 µg/mL
  IMP MIC: 0.3125 µg/mL
E. coli MG1655OXA-48; with CDD-97 16 μg/mL
  AMP MIC: 512 µg/mL
  IMP MIC: 0.3125 µg/mL
E. coli MG1655OXA-48; with CDD-97 32 μg/mL
  AMP MIC: 512 µg/mL
  IMP MIC: 0.3125 µg/mL
E. coli MG1655OXA-48; with CDD-97 64 μg/mL
  AMP MIC: 512 µg/mL
  IMP MIC: 0.3125 µg/mL

## C[C@@H](O)[C@H]1C(=O)N2C(C(=O)O)=C(SCCN=CN)C[C@H]12 [IMP, imipenem]
E. coli MG1655OXA-48; MG1655OXA48, read-out: IMP MIC, no inhibitor (0 μg/mL)
  MIC: 0.625 µg/mL (≈ 2.09 µM)
